Experimental data: patent US20110112101A1, “TREATMENT FOR OCULAR-RELATED DISORDERS” (SANOFI-AVENTIS, priority 2009, published 2011)

Test system: laser induced plaque on the retina (model of wet AMD)
Experiment: laser induced model of macular degeneration in the rat
Type: in vivo
Conditions: for % Inhibition of Plaque: krypton laser injury of retina
Method: Several models of wet AMD are available in the rodent and rabbit. The pre-clinical efficacy of the compound of Formula I was assessed in a laser induced model of macular degeneration in the rat. In this model, injury is induced on the retina of the rat by a focused laser beam. This injury results in vascularization and inflammation, and the subsequent formation of a plaque on the retina that is associated with loss of vision. The ability of treatments with a compound of Formula Ito inhibit the size and thickness of such plaques serves as an indicator for the potential for the treatment of wet AMD patients. A krypton laser was used to irradiate the retina of a rat eye at 75 microns for 0.1 seconds, at each of 3-4 spots. From days 1 to 14, the irradiated rats were dosed twice a day with the compound of Formula I perorally (bid PO). Doses used were 3 mg/kg, 10 mg/kg, and 30 mg/kg body weight. An additional treatment group was given the vehicle for the oral compound, also bid PO administration. A positive control was used with 0.5 mg triamcinolone delivered to the intraocular subtendon. At 14 days after such irradiation, the rat was perfused with FITC-dextran (fluorescein isothiocyanate dextran) and the eyes were removed for evaluation. Evaluation was by fundoscopy and fluorescein angiography.

Row | Compound | % Inhibition of Plaque (3 mg/kg bid PO days 1 to 14, evaluated at 14 days) [%] | % Inhibition of Plaque (10 mg/kg bid PO days 1 to 14, evaluated at 14 days) [%] | % Inhibition of Plaque (30 mg/kg bid PO days 1 to 14, evaluated at 14 days) [%] | plaque thickness (laser induced model, 30 and 10 mg/kg bid PO) | results compared with positive control triamcinolone (laser induced model, 30 and 10 mg/kg bid PO versus 0.5 mg triamcinolone) | % Inhibition of Plaque (positive control 0.5 mg delivered to the intraocular subtendon, evaluated at 14 days) [%]
1 | CCc1c(-c2ccc(C(C)(C)O)cc2)[nH]c2nccnc12 [compound of Formula I, 2-[4-(7-Ethyl-5H-pyrrolo[2,3-b]pyrazin-6-yl)-phenyl]-propan-2-ol] | 12 | 36 | 33 | significantly reduced plaque thickness | significantly better | –
2 | C[C@]12C=CC(=O)C=C1CC[C@H]1[C@@H]3C[C@@H](O)[C@](O)(C(=O)CO)[C@@]3(C)C[C@H](O)[C@@]12F [triamcinolone, reference compound] | – | – | – | – | – | 26
